Assay [1] addresses T1, Telomerase reverse transcriptase (Homo sapiens, UniProt O14746). The assay can be described thus: Inhibitory activity against telomerase; ND: Not detected concentrations as high as 50 uM.
Assay [2] deals with T1, Telomerase reverse transcriptase. Nature of the assay: Inhibitory activity against telomerase; ND: not detected concentrations as high as 50 uM.
The target is the same in assay [3]. The assay can be described thus: Inhibitory activity against telomerase.

T1 sequence (O14746 whole entry): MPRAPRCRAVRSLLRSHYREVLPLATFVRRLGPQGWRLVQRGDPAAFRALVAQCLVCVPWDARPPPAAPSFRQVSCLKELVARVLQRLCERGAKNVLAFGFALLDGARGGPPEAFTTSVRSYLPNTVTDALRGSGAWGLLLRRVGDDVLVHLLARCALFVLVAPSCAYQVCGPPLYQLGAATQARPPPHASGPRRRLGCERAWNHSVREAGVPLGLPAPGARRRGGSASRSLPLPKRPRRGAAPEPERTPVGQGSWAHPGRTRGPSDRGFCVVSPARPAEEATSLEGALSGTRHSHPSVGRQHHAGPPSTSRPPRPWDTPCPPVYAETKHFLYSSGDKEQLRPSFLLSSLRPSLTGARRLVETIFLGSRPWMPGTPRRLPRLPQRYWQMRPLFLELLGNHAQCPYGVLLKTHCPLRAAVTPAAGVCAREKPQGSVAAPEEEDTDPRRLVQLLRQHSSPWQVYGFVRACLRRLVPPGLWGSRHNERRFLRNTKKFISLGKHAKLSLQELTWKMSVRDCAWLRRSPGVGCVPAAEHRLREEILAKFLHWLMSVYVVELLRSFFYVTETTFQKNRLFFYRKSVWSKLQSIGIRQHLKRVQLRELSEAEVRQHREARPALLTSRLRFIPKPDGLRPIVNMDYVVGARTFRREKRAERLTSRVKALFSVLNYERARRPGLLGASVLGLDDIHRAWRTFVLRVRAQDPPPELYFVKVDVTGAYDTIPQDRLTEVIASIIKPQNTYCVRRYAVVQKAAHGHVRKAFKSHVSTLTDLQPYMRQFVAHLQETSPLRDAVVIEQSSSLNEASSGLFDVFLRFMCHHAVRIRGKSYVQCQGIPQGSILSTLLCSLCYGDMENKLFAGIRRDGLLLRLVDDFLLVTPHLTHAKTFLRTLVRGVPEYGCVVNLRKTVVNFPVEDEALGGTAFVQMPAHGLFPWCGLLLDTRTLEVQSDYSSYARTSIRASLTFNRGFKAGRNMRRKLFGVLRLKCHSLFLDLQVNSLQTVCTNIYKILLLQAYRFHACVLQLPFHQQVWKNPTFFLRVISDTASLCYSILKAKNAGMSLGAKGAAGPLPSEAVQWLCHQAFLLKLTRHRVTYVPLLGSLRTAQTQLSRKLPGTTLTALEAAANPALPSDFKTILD

For `C/C(=C(/Cl)C(=O)Nc1ccccc1C(=O)O)c1ccc2ccccc2c1`, in assay [1], the IC50 result is given as “Inhibition not detected”.

`CC(/C=C(\Cl)C(=O)Nc1ccccc1C(=O)O)c1ccccc1` (configuration not stated): the IC50 entry in assay [2] is recorded as “Inhibition not detected”.

For `C/C(=C\C(=O)Nc1ccccc1C(=O)O)c1ccc2ccccc2c1`, the IC50 in assay [3] was 5 µM.

For `COc1cc(CCC(=O)Nc2ccccc2C(=O)O)ccc1O`, the IC50 entry in assay [1] is “Inhibition not detected”.

Turning to `COc1cc(/C=C(\Cl)C(=O)Nc2ccccc2C(=O)O)ccc1OCc1ccccc1`, the IC50 result in assay [1] is given as “Inhibition not detected”.

Take `CC(CC(=O)Nc1ccccc1C(=O)O)c1ccc2ccccc2c1` (configuration not stated): the IC50 result in assay [1] is given as “Inhibition not detected”.

In turn, `C/C(=C/C(=O)Nc1ccccc1C(=O)O)c1ccc2ccccc2c1` had an IC50 in assay [3] of 5 µM.

A word on the IC50: it is the concentration that inhibits the measured activity by half.

Source of the values: ChEMBL document CHEMBL1136689, “Inhibition of telomerase by BIBR 1532 and related analogues” (Bioorg Med Chem Lett, 2003).
